Test results as given in patent publication US12043621B2, “Small molecule inhibitors of Interleukin-4” (Trustees of Boston University, priority 2020, dated 2024).

Experiments:
[1] = target: T1, IL-4 (Homo sapiens, UniProt P05112); test: HEK-Blue IL-4/IL-13 cell-based reporter (SEAP) IL-4 inhibition assay; settings: Example 2, quadruplicate; read-out: EC50 of IL-4 inhibition in HEK-Blue IL-4/IL-13 cells
T1 construct: purchased Acros Biosystems IL4-H4218; host or cells: HEK-293
T1 sequence (P05112 25-153): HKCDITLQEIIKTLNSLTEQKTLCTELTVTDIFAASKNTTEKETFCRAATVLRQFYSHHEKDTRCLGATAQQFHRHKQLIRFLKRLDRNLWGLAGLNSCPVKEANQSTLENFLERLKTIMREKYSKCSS
Protocol: HEK-Blue IL-4/IL-13 cells were purchased from Invivogen and maintained in DMEM complete with 10% fetal bovine serum, 10 μg/ml of blasticidin and 100 μg/ml of Zeocin, 100 μg/mL Normocin, and 100 U/mL-100 μg/mL Pen-Strep. Cells used for assays were between passages 12 and 18. […] HEK-Blue IL-4/IL-13 cells were trypsinized, spun down, and resuspended in DMEM with 10% heat-inactivated FBS, and 100 U/mL-100 μg/mL Pen-Strep at a concentration of 3.125E5/mL. 160 μL of the cell suspension was added to each well of a 96 well plate, avoiding the edges of the plate and equilibrated in an incubator for 1 hour. After 2 hours, 40 μL of the small molecule/IL-4 solution was added to each well. Each measurement performed in quadruplicate. Cells were incubated for 20 hours at 37° C./5% CO2. Quanti-Blue was prepared according to manufacture and 160 μL added to each well of a 96 well plate, avoiding edges. 40 μL of cell supernatant was added to each well and then incubated for 3 hours at 37° C. The optical density was then read at 650 nm with a Molecular Devices SpectraMax M5 Microplate Reader. Data was plotted and analyzed in GraphPad Prism 8.
HEK-Blue IL-4/IL-13 cells were purchased from Invivogen and maintained in DMEM complete with 10% fetal bovine serum, 10 μg/ml of blasticidin and 100 μg/ml of Zeocin, 100 μg/mL Normocin, and 100 U/mL-100 μg/mL Pen-Strep. Cells used for assays were between passages 12 and 18. Prior to screening small molecules, the SEAP production induced by IL-4 alone was tested in the cells (FIG. 13) and determined to be 0.3 ng/mL. The EC25 for the IL-4 induced SEAP production (0.1 ng/mL final well concentration) was chosen for running small molecule inhibition assays.
For screening small molecules, 25 µL of each molecule (FIG. 9) in DMEM with 4% DMSO was added to 25 μL of 1 ng/ml IL-4 in DMEM and incubated for 2 hours at 37° C. HEK-Blue IL-4/IL-13 cells were trypsinized, spun down, and resuspended in DMEM with 10% heat-inactivated FBS, and 100 U/mL-100 μg/mL Pen-Strep at a concentration of 3.125E5/mL. 160 μL of the cell suspension was added to each well of a 96 well plate, avoiding the edges of the plate and equilibrated in an incubator for 1 hour. After 2 hours, 40 μL of the small molecule/IL-4 solution was added to each well. Each measurement was performed in […]. Cells were incubated for 20 hours at 37° C./5% CO2. Quanti-Blue was prepared according to manufacture and 160 μL added to each well of a 96 well plate, avoiding edges. 40 μL of cell supernatant was added to each well and then incubated for 3 hours at 37° C. The optical density was then read at 650 nm with a Molecular Devices SpectraMax M5 Microplate Reader. Data was plotted and analyzed in GraphPad Prism 8.
HEK-Blue IL-4/IL-13 cells used to screen analogs of compound 52 from ACS Chemical Biology paper (also referred to herein as D9). Assay was run as described in Examples 2 and 3. All compounds were screened at 10 μM, 1 μM, and 250 nM in quadruplicate. The results are depicted in FIGS. 17-21.

[2] = system: STAT-6 phosphorylation in THP-1 cells; test: THP-1 STAT-6/pSTAT-6 Western blot assay; format: cell-based; settings: Homo sapiens, THP-1, THP-1 cells, IL-4 preincubated with compound, read-out: EC50 of reduction in pSTAT-6 levels
Protocol: THP-1 cells were maintained in RMPI-1640 with 10% heat-inactivated fetal bovine serum and 50 μM beta-mercaptoethanol. Cells used for assays were between passages 6 and 10. 10 ng/ml IL-4 was preincubated with experimental sample (vehicle, D9 etc) for 2 hours at 37° C. Solutions were then added to 2E6 THP-1 cells in 1 mL. THP-1 cells were incubated for 30 minutes in incubator at 37° C. 5% CO2. Cells were then spun down, lysed with 200 μL ice-cold RIPA buffer complete with phosphatase and protease inhibitors. Cell lysate was incubated on ice for 30 minutes and then stored at −20° C. until western blot analysis. Undiluted cell-lysate was run SDS-PAGE followed by transfer to membrane using Biorad equipment. Membranes were incubated with 1:1000 primary antibody overnight at 4° ° C. Membranes then incubated with 1:50,000 dilution secondary for 1 hour at RT. […] The brightness/contrast was adjusted in […] and the area under the curve of each lane was quantified.
THP-1 cells were maintained in RMPI-1640 with 10% heat-inactivated fetal bovine serum and 50 μM beta-mercaptoethanol. […] The brightness/contrast was adjusted in FIJI (FIGS. 15 and 16) and the area under the curve of each lane was quantified. The ratio of phosphorylated STAT6 to STAT6 was calculated and normalized to the amount of total STAT6. The data was plotted and analyzed using Graphpad Prism 8.

[3] = system: pSTAT6 in Ramos cells; test: Reduction of pSTAT6 in Ramos cells (Western blot); format: cell-based; settings: Homo sapiens; Ramos cells (type I receptor complex); read-out: EC50 of pSTAT6 inhibition
Protocol: Ramos cells were used as cell-based model of IL-4 inhibition. Ramos cells express type I receptor complex (IL-4Rα and γc)—they were used to confirm that the lead compound D9 (compound 1 in Table 3) inhibits IL-4 signaling in this context as well.
The assay was run as described in Example 2 and 3 for THP-1 cells. Blotting was conducted for pSTAT6 and STAT6 and the percent of pSTAT6 calculated based on total STAT6. All conditions were run in triplicate. The results are depicted in FIGS. 22-23.

SMILES: N#Cc1c(-c2ccc(O)c(O)c2)cc(-c2ccc(F)cc2)nc1N [Compound D9]
- EC50 [1]: 5.73 µM
- EC50 [2]: 3.1 µM
- EC50 [3]: 6.12 µM
